# Test results published in patent US7432276B2, “ABCA1 elevating compounds” (CV Therapeutics, Inc., priority 2005, dated 2008).
# Test system: ABCA1 mRNA
# Assay: ABCA1 mRNA induction in THP-1 cells, QuantiGene branched DNA assay
# Format: cell-based
# Conditions: 10 μM test compound, 18-20 hours
# How it was run: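 THP-1 cells, grown to subconfluence, treated with compounds at 10 and 3 μM in DMEM/BSA for 18–20 h. Lysates hybridized with ABCA1-specific probe 16–18 h at 53 °C; QuantiGene branched DNA luminescence gives fold increase over DMSO.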
row,SMILES,ABCA1 Induction Fold Increase over DMSO Vehicle [FOLD INCREASE]
1,"COc1cccc2c1[C@H]1Nc3ccc(F)cc3C(C)(C)[C@H]1CO2 [Number 55, (12aS,6aR)-9-fluoro-1-methoxy-7,7-dimethyl-7,12,12a,6a-tetrahydrochromano[4,3-b]quinoline]",2.5
2,"COc1ccc(Br)c2c1OCC1C2Nc2ccc(C(N)=O)cc2C1(C)C (stereo not drawn) [Number 81, 1-bromo-4-methoxy-7,7-dimethyl-7,12,12a,6a-tetrahydrochromano[4,3-b]quinoline-9-carboxamide]",1.9
3,"COc1cccc2c1OCC1C2Nc2ccc(-c3nnn[nH]3)cc2C1(C)C (stereo not drawn) [Number 19, 4-methoxy-7,7-dimethyl-9-(1,2,3,4-tetraazol-5-yl)-7,12,12a,6a-tetrahydrochromano[4,3-b]quinoline]",5.6
4,"COc1cccc2c1[C@H]1Nc3ccc(-n4cc(C(=O)N5CCS(=O)(=O)CC5)cn4)cc3C(C)(C)[C@H]1CO2 [Number 138, 1-((6aR,12aS)-6a,7,12,12a-tetrahydro-1-methoxy-7,7-dimethyl-6H-chromeno[4,3-b]quinolin-9-yl)1-1H-pyrazole-4-((1,1-dione-1,4-thiazaperhydroin-yl)methanone)]",7.4
5,"CC(C)=CCOc1cccc2c1OCC1C2Nc2ccc(C(O)(C(F)(F)F)C(F)(F)F)cc2C1(C)C (stereo not drawn) [Number 25, 2-[7,7-dimethyl-4-(3-methylbut-2-enyloxy)(7,12,12a,6a-tetrahydrochromano[4,3-b]quinolin-9-yl)]-1,1,1,3,3,3-hexafluoropropan-2-ol]",4.0
6,"CCS(=O)(=O)N1CCN(C(=O)c2cnn(-c3ccc4c(c3)C(C)(C)[C@H]3COc5cccc(OC)c5[C@H]3N4)c2C)CC1 [Number 140, 1-((6aR,12aS)-6a,7,12,12a-tetrahydro-1-methoxy-7,7-dimethyl-6H-chromeno[4,3-b]quinolin-9-yl)-5-methyl-1H-pyrazole-4-((4-ethanesulfonylpiperazin-1-yl)methanone)]",5.1
7,"CC(C)Oc1ccc2c(c1)C(C)(C)C1COc3c(F)cccc3C1N2 (stereo not drawn) [Number 102, 4-fluoro-7,7-dimethyl-9-(methylethoxy)-7,12,12a,6a-tetrahydrochromano[4,3-b]quinoline]",4.2
8,"COc1cccc2c1OC[C@@H]1[C@H]2Nc2ccc(N3CCS(=O)(=O)CC3)cc2C1(C)C [Number 20, 4-((6aS,12aR)-4-methoxy-7,7-dimethyl-7,12,12a,6a-tetrahydrochromano[4,3-b]quinolin-9-yl)-1,4-thiazaperhydroine-1,1-dione]",6.5
9,"CCS(=O)(=O)N1CCN(C(=O)c2coc(-c3ccc4c(c3)C(C)(C)[C@H]3COc5cccc(F)c5[C@H]3N4)n2)CC1 [Number 142, 2-((6aR,12aS)-1-fluoro-6a,7,12,12a-tetrahydro-7,7-dimethyl-6H-chromeno[4,3-b]quinolin-9-yl)oxazole-(4-(4-ethanesulfonylpiperazin-1-yl)methanone)]",5
10,"CC1(C)c2cc(-c3nc(C(=O)N4CCS(=O)(=O)CC4)co3)ccc2N[C@@H]2c3c(F)cccc3OC[C@@H]21 [Number 143, 2-((6aR,12aS)-1-fluoro-6a,7,12,12a-tetrahydro-7,7-dimethyl-6H-chromeno[4,3-b]quinolin-9-yl)oxazole-(4-(1,1-dione-1,4-thiazaperhydroin-yl)methanone)]",6.1
11,"CCS(=O)(=O)N1CCN(C(=O)c2cnn(-c3ccc4c(c3)C(C)(C)[C@H]3COc5cccc(F)c5[C@H]3N4)c2C)CC1 [Number 144, 1-((6aR,12aS)-6a,7,12,12a-tetrahydro-1-fluoro-7,7-dimethyl-6H-chromeno[4,3-b]quinolin-9-yl)-5-methyl-1H-pyrazole-4-((4-ethanesulfonylpiperazin-1-yl)methanone)]",2.1
12,"COc1cccc2c1[C@H]1Nc3ccc(-n4ncc(C(=O)N5CCS(=O)(=O)CC5)c4C)cc3C(C)(C)[C@H]1CO2 [Number 141, 1-((6aR,12aS)-6a,7,12,12a-tetrahydro-1-methoxy-7,7-dimethyl-6H-chromeno[4,3-b]quinolin-9-yl)1-5-methyl-1H-pyrazole-4-((1,1-dione-1,4-thiazaperhydroin-yl)methanone)]",7.1
13,"CC(C)=CCOC(=O)c1ccc2c(c1)C1Nc3ccc(B(O)O)cc3C(C)(C)C1CO2 (stereo not drawn) [Number 15, 3-methylbut-2-enyl 9-(dihydroxyboramethyl)-7,7-dimethyl-7,12,12a,6a-tetrahydrochromano[4,3-b]quinoline-2-carboxylate]",1.8
14,"COc1cccc2c1C1Nc3ccc(C(C)=O)cc3C(C)(C)C1CO2 (stereo not drawn) [Number 43, 1-(1-methoxy-7,7-dimethyl-7,12,12a,6a-tetrahydrochromano[4,3-b]quinolin-9-yl)ethan-1-one]",4.1
15,"CCOP(=O)(Cc1ccc2c(c1)C(C)(C)C1COc3cccc(OC)c3C1N2)OCC (stereo not drawn) [Number 90, diethoxy[(1-methoxy-7,7-dimethyl(7,12,12a,6a-tetrahydrochromano[4,3-b]quinolin-9-yl))methyl]phosphino-1-one]",7.6
16,"COc1cccc2c1OC[C@H]1[C@@H]2Nc2ccc(Br)cc2C1(C)C [Number 86, (12aS,6aR)-9-bromo-4-methoxy-7,7-dimethyl-7,12,12a,6a-tetrahydrochromano[4,3-b]quinoline]",8.4
17,"COc1cccc2c1C1Nc3ccc(C(C)(C)C)cc3C(C)(C)C1CO2 (stereo not drawn) [Number 88, 9-(tert-butyl)-1-methoxy-7,7-dimethyl-7,12,12a,6a-tetrahydrochromano[4,3-b]quinoline]",6.8
18,"COc1cccc2c1[C@H]1Nc3ccc(-c4ccc(CCC(=O)O)cc4)cc3C(C)(C)[C@H]1CO2 [Number 114, 3-[4-((12aS,6aR)-1-methoxy-7,7-dimethyl-7,12,12a,6a-tetrahydrochromano[4,3-b]quinolin-9-yl)phenyl]propanoic acid]",2.7
19,"COc1cccc2c1[C@H]1Nc3ccc(-c4ccc(CO)cc4)cc3C(C)(C)[C@@H]1CO2 [Number 98, [4-((12aS,6aS)-1-methoxy-7,7-dimethyl-7,12,12a,6a-tetrahydrochromano[4,3-b]quinolin-9-yl)phenyl]methan-1-ol]",5.2

# Same assay, conditions: Homo sapiens, 10 μM test compound, 18-20 hours, read-out: ABCA1 Induction Fold Increase over DMSO Vehicle
row,SMILES,fold induction at 10 µM
1,"CCOP(=O)(Cc1ccc2c(c1)C(C)(C)[C@H]1COc3c(OC)cc(-c4cn[nH]c4)cc3[C@H]1N2)OCC [Number 181, diethyl((6aR,12aS)-6a,7,12,12a-tetrahydro-4-methoxy-7,7-dimethyl-2-(1H-pyrazol-4-yl)-6H-chromeno[4,3-b]quinolin-9-yl)methylphosphonate]",4.9
2,"CCOC(=O)c1cnn(-c2ccc3c(c2)C(C)(C)[C@H]2COc4cccc(OC)c4[C@H]2N3)c1 [Number 135, ethyl 1-((6aR,12aS)-6a,7,12,12a-tetrahydro-1-methoxy-7,7-dimethyl-6H-chromeno[4,3-b]quinolin-9-yl)-1H-pyrazole-4-carboxylate]",6.4
3,"COc1cccc2c1OC[C@H]1[C@@H]2Nc2ccc(-c3nc(C(=O)O)co3)cc2C1(C)C [Number 146, 2-((6aR,12aS)-6a,7,12,12a-tetrahydro-4-methoxy-7,7-dimethyl-6H-chromeno[4,3-b]quinolin-9-yl)oxazole-4-carboxylic acid]",8.2
4,"COc1cc(Br)cc2c1OC[C@@H]1[C@@H]2Nc2ccc(-c3cnco3)cc2C1(C)C [Number 150, (6aS,12aS)-2-bromo-6a,7,12,12a-tetrahydro-4-methoxy-7,7-dimethyl-9-(oxazol-5-yl)-6H-chromeno[4,3-b]quinoline]",12.5
5,"COc1ccc2c(c1)C1Nc3ccc(C(O)(C(F)(F)F)C(F)(F)F)cc3C(C)(C)C1CO2 (stereo not drawn) [Number 7, 1,1,1,3,3,3-hexafluoro-2-(2-methoxy-7,7-dimethyl(7,12,12a,6a-tetrahydrochromano[4,3-b]quinolin-9-yl))propan-2-ol]",3.1
6,"CC1(C)c2cc(C(=O)N3CCNCC3)ccc2N[C@@H]2c3c(F)cccc3OC[C@@H]21 [Number 130, ((6aR,12aS)-1-fluoro-6a,7,12,12a-tetrahydro-7,7-dimethyl-6H-chromeno[4,3-b]quinolin-9-yl)(piperazin-1-yl)methanone]",4.2
7,"COc1cccc2c1OC[C@H]1[C@@H]2Nc2ccc(C(=O)N3CCOCC3)cc2C1(C)C [Number 119, ((6aR,12aS)-6a,7,12,12a-tetrahydro-4-methoxy-7,7-dimethyl-6H-chromeno[4,3-b]quinolin-9-yl)(morpholino)methanone]",7.5
8,"COc1cccc2c1[C@H]1Nc3ccc(-n4cc(C(=O)O)cn4)cc3C(C)(C)[C@H]1CO2 [Number 136, 1-((6aR,12aS)-6a,7,12,12a-tetrahydro-1-methoxy-7,7-dimethyl-6H-chromeno[4,3-b]quinolin-9-yl)-1H-pyrazole-4-carboxylic acid]",4.1
9,"COc1cccc2c1[C@@H]1[C@@H](CO2)C(C)(C)c2ccccc2N1C1CCCCC1 [Number 167, (6aS,12aS)-12-cyclohexyl-6a,7,12,12a-tetrahydro-1-methoxy-7,7-dimethyl-6H-chromeno[4,3-b]quinoline]",7.9
10,"COc1cccc2c1[C@H]1Nc3ccc(C(=O)N4CCNCC4)cc3C(C)(C)[C@H]1CO2 [Number 127, ((6aR,12aS)-6a,7,12,12a-tetrahydro-1-methoxy-7,7-dimethyl-6H-chromeno[4,3-b]quinolin-9-yl)(piperazin-1-yl)methanone]",5.1
11,"COc1cc(Br)cc2c1OC[C@H]1[C@@H]2Nc2ccc(-c3cnco3)cc2C1(C)C [Number 149, (6aR,12aS)-2-bromo-6a,7,12,12a-tetrahydro-4-methoxy-7,7-dimethyl-9-(oxazol-5-yl)-6H-chromeno[4,3-b]quinoline]",5.5
